Test results reported in PubChem BioAssay (NCI).
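A five-concentration, 48-hour dose response in 96-well plates underlies each endpoint, interpolated linearly between surrounding concentrations. Abbreviation: GI50, concentration required for 50% inhibition of growth. TGI marks complete inhibition of growth.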

Key:
Assay in all cases: DTP human tumour cell line panel, 48 h
[1] = test system: IGROV1 ovarian
[2] = test system: NCI-H226 lung
[3] = test system: OVCAR-4 ovarian
[4] = test system: SK-OV-3 ovarian
[5] = test system: HT29 colon
[6] = test system: NCI-H522 lung
[7] = test system: HCT-15 colon
[8] = test system: EKVX NSCLC
[9] = test system: 786-0 renal
[10] = test system: SF-268 CNS
[11] = test system: UO-31 renal
[12] = test system: NCI-H460 lung
[13] = test system: DU-145 prostate
[14] = test system: RXF 393 renal
[15] = test system: A549 NSCLC
[16] = test system: OVCAR-8 ovarian
[17] = test system: SF-539 CNS
[18] = test system: MCF7 breast
[19] = test system: SK-MEL-5 melanoma
[20] = test system: SK-MEL-28 melanoma
[21] = test system: K-562 leukemia
[22] = test system: U251 CNS
[23] = test system: HOP-92 NSCLC
[24] = test system: M14 melanoma
[25] = test system: HCC-2998 colon
[26] = test system: ACHN renal
[27] = test system: SNB-75 CNS
[28] = test system: OVCAR-5 ovarian
[29] = test system: SN12C renal
[30] = test system: HCT-116 colon
[31] = test system: A498 renal
[32] = test system: MALME-3M melanoma
[33] = test system: CAKI-1 renal
[34] = test system: RPMI-8226 leukemia
[35] = test system: MDA-MB-435
[36] = test system: TK-10 renal
[37] = test system: UACC-257 melanoma
[38] = test system: NCI/ADR-RES ovarian
[39] = test system: CCRF-CEM leukemia
[40] = test system: T-47D breast
[41] = test system: MOLT-4 leukemia
[42] = test system: MDA-MB-231 breast
[43] = test system: OVCAR-3 ovarian
[44] = test system: BT-549 breast
[45] = test system: SK-MEL-2 melanoma
[46] = test system: KM12 colon
[47] = test system: UACC-62 melanoma
[48] = test system: NCI-H23 lung
[49] = test system: COLO 205 colon
[50] = test system: SNB-19 CNS
[51] = test system: SW-620 colon
[52] = test system: PC-3 prostate
[53] = test system: HS 578T breast
[54] = test system: HOP-62 NSCLC
[55] = test system: SR leukemia
[56] = test system: SF-295 CNS

## C#C[C@]1(O)CC[C@H]2[C@@H]3CC=C4c5sc(Nc6ccc(C)cn6)nc5CC[C@]4(C)[C@H]3CC[C@@]21C
[1]
  GI50: 1750 nM
  TGI: 12900 nM
[2]
  GI50: 2160 nM
  TGI: 8320 nM
[3]
  GI50: 1900 nM
  TGI: 13800 nM
[4]
  GI50: 717 nM
  TGI: 3300 nM
[5]
  GI50: 1200 nM
  TGI: 3260 nM
[6]
  GI50: 2010 nM
  TGI: 4580 nM
[7]
  GI50: 1000 nM
  TGI: 2740 nM
[8]
  GI50: 994 nM
  TGI: 9920 nM
[9]
  GI50: 198 nM
  TGI: 610 nM
[10]
  GI50: 1070 nM
  TGI: 10600 nM
[11]
  GI50: 378 nM
  TGI: 1620 nM
[12]
  GI50: 652 nM
  TGI: 5290 nM
[13]
  GI50: 1840 nM
  TGI: 11500 nM
[14]
  GI50: 53.6 nM
  TGI: 261 nM
[15]
  GI50: 1350 nM
  TGI: 12300 nM
[16]
  GI50: 2020 nM
  TGI: > 27100 nM
[17]
  GI50: 203 nM
  TGI: 646 nM
[18]
  GI50: 402 nM
  TGI: 1920 nM
[19]
  GI50: 1270 nM
  TGI: 2580 nM
[20]
  GI50: 254 nM
  TGI: 727 nM
[21]
  GI50: 408 nM
  TGI: > 100000 nM
[22]
  GI50: 537 nM
  TGI: 5770 nM
[23]
  GI50: 877 nM
  TGI: 4130 nM
[24]
  GI50: 536 nM
  TGI: 2550 nM
[25]
  GI50: 2230 nM
  TGI: 7260 nM
[26]
  GI50: 907 nM
  TGI: 11200 nM
[27]
  GI50: 332 nM
  TGI: 3450 nM
[28]
  GI50: 2130 nM
  TGI: 6760 nM
[29]
  GI50: 2520 nM
  TGI: 10500 nM
[30]
  GI50: 504 nM
  TGI: 2170 nM
[31]
  GI50: 376 nM
  TGI: 1120 nM
[32]
  GI50: 559 nM
  TGI: 2420 nM
[33]
  GI50: 597 nM
  TGI: 4000 nM
[34]
  GI50: 199 nM
  TGI: 609 nM
[35]
  GI50: 715 nM
  TGI: 3670 nM
[36]
  GI50: 2550 nM
  TGI: 9900 nM
[37]
  GI50: 947 nM
  TGI: 3350 nM
[38]
  GI50: 1860 nM
  TGI: 6940 nM
[39]
  GI50: 431 nM
  TGI: 3300 nM
[40]
  GI50: 1970 nM
  TGI: 12100 nM
[41]
  GI50: 300 nM
[42]
  GI50: 1280 nM
  TGI: 4000 nM
[43]
  GI50: 1850 nM
  TGI: 6150 nM
[44]
  GI50: 566 nM
  TGI: 3050 nM
[45]
  GI50: 741 nM
  TGI: 3230 nM
[46]
  GI50: 1050 nM
  TGI: 4510 nM
[47]
  GI50: 363 nM
  TGI: 1430 nM
[48]
  GI50: 1240 nM
  TGI: 5160 nM
[49]
  GI50: 1490 nM
  TGI: 3680 nM
[50]
  GI50: 1220 nM
  TGI: 4830 nM
[51]
  GI50: 657 nM
  TGI: 2230 nM
[52]
  GI50: 379 nM
  TGI: 5080 nM
[53]
  GI50: 265 nM
  TGI: 986 nM
[54]
  GI50: 1070 nM
  TGI: 4340 nM
[55]
  GI50: 343 nM
[56]
  GI50: 184 nM
  TGI: 411 nM
